Experiments:
[1] = molecular target: human CB1 receptor (Homo sapiens, UniProt P21554); assay: cell-based
[2] = molecular target: T1, rat CB2 receptor (Rattus norvegicus, UniProt Q9QZN9); assay: cell-based; format: cell-based
T1 sequence (Q9QZN9 1-360): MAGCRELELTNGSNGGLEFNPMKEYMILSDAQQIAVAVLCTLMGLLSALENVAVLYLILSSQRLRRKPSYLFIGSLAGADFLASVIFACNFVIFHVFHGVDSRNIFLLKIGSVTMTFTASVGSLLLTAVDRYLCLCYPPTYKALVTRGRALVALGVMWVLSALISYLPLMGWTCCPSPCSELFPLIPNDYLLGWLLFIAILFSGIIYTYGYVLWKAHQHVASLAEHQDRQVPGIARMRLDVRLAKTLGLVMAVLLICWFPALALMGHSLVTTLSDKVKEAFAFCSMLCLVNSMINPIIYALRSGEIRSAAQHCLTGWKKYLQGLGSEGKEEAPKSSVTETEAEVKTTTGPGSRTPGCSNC

Chain of human CB1 receptor (P21554 whole entry): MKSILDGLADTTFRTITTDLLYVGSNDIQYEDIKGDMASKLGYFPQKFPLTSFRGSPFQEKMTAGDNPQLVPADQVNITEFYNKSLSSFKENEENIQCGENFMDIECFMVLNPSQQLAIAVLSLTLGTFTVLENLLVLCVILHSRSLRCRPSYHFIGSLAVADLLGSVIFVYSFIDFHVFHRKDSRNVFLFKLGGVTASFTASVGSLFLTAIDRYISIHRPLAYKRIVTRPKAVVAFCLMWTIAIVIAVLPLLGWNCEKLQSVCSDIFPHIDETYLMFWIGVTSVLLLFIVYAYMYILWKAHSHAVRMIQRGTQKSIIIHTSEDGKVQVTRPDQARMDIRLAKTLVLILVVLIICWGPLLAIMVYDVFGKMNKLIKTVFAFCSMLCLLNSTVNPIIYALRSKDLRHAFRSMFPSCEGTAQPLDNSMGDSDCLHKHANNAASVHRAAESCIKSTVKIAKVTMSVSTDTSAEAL

For `CC(C)(C)NC(=O)c1cnc2c(c1)N(S(=O)(=O)c1ccsc1)CCO2` [Example 90, N-tert-butyl-1-(thiophen-3-ylsulfonyl)-2,3-dihydro-1H-pyrido[2,3-b][1,4]oxazine-7-carboxamide], the EC50 [1] was over 30 µM and the EC50 [2] was at most 0.03 µM.
With `Cc1csc(S(=O)(=O)N2CCOc3ncc(C(=O)NC(C)(C)C)cc32)c1` [Example 92, N-tert-butyl-1-(4-methylthiophen-2-ylsulfonyl)-2,3-dihydro-1H-pyrido[2,3-b][1,4]oxazine-7-carboxamide] the EC50 [1] was over 30 µM and the EC50 [2] was at most 0.03 µM.
`CC(C)(CO)NC(=O)c1cnc2c(c1)N(S(=O)(=O)c1ccc(Cl)c(Cl)c1)CCO2` [Example 95, 1-(3,4-dichlorophenylsulfonyl)-N-(1-hydroxy-2-methylpropan-2-yl)-2,3-dihydro-1H-pyrido[2,3-b][1,4]oxazine-7-carboxamide] showed an EC50 [1] of over 30 µM and an EC50 [2] of at most 0.03 µM.
Work on `CC(C)(CO)NC(=O)c1cnc2c(c1)N(S(=O)(=O)c1ccc(Cl)cc1F)CCO2` [Example 96, 1-(4-chloro-2-fluorophenylsulfonyl)-N-(1-hydroxy-2-methylpropan-2-yl)-2,3-dihydro-1H-pyrido[2,3-b][1,4]oxazine-7-carboxamide] yielded an EC50 [1] of over 30 µM and an EC50 [2] of at most 0.03 µM.
`CC(C)(O)CNC(=O)c1cnc2c(c1)N(S(=O)(=O)c1ccc(Cl)cc1F)CCO2` [Example 97, 1-(4-chloro-2-fluorophenylsulfonyl)-N-(2-hydroxy-2-methylpropyl)-2,3-dihydro-1H-pyrido[2,3-b][1,4]oxazine-7-carboxamide] was tested, and the EC50 [1] was over 30 µM and the EC50 [2] was at most 0.03 µM.
`CC(C)(O)CNC(=O)c1cnc2c(c1)N(S(=O)(=O)c1ccc(Cl)c(Cl)c1)CCO2` [Example 98] gave an EC50 [1] of over 30 µM and an EC50 [2] of at most 0.03 µM.
`CC(C)(CO)NC(=O)c1cnc2c(c1)N(S(=O)(=O)c1ccc(F)c(Cl)c1)CCO2` [Example 99, 1-(3-chloro-4-fluorophenylsulfonyl)-N-(1-hydroxy-2-methylpropan-2-yl)-2,3-dihydro-1H-pyrido[2,3-b][1,4]oxazine-7-carboxamide] showed an EC50 [1] of over 30 µM and an EC50 [2] of at most 0.03 µM.
Compound `COc1ccc(S(=O)(=O)N2CCOc3ncc(C(=O)NC(C)(C)CO)cc32)c(F)c1` [Example 103, 1-(2-fluoro-4-methoxyphenylsulfonyl)-N-(1-hydroxy-2-methylpropan-2-yl)-2,3-dihydro-1H-pyrido[2,3-b][1,4]oxazine-7-carboxamide] has an EC50 [1] of over 30 µM and an EC50 [2] of at most 0.03 µM.
`COc1ccc(S(=O)(=O)N2CCOc3ncc(C(=O)NCC(C)(C)O)cc32)cc1Cl` [Example 104] was tested, and the EC50 [1] was over 30 µM and the EC50 [2] was at most 0.03 µM.
Compound `CC(C)(CN1CCOCC1)NC(=O)c1cnc2c(c1)N(S(=O)(=O)c1ccc(Cl)cc1F)CCO2` [Example 113, 1-(4-chloro-2-fluorophenylsulfonyl)-N-(2-methyl-1-morpholinopropan-2-yl)-2,3-dihydro-1H-pyrido[2,3-b][1,4]oxazine-7-carboxamide] has an EC50 [1] of over 30 µM and an EC50 [2] of at most 0.03 µM.
In the case of `O=C(N[C@@H]1CCC[C@H]1O)c1cnc2c(c1)N(S(=O)(=O)c1ccc(Cl)c(Cl)c1)CCO2` [Example 133, 1-(3,4-dichlorophenyl-sulfonyl)-N-((1R,2R)-2-hydroxycyclopentyl)-2,3-dihydro-1H-pyrido[2,3-b][1,4]oxazine-7-carboxamide], the EC50 [1] is reported as over 30 µM and the EC50 [2] is reported as at most 0.03 µM.
`O=C(NC1CCC1)c1cnc2c(c1)N(S(=O)(=O)c1ccc(Cl)c(Cl)c1)CCO2` [Example 137, N-cyclobutyl-1-(3,4-dichlorophenylsulfonyl)-2,3-dihydro-1H-pyrido[2,3-b][1,4]oxazine-7-carboxamide] showed an EC50 [1] of over 30 µM and an EC50 [2] of at most 0.03 µM.
In the case of `O=C(NCc1ccccc1)c1cnc2c(c1)N(S(=O)(=O)c1ccc(Cl)c(Cl)c1)CCO2` [Example 138, N-benzyl-1-(3,4-dichlorophenylsulfonyl)-2,3-dihydro-1H-pyrido[2,3-b][1,4]oxazine-7-carboxamide], the EC50 [1] is reported as over 30 µM and the EC50 [2] is reported as at most 0.03 µM.
In the case of `CCOC(=O)C1(NC(=O)c2cnc3c(c2)N(S(=O)(=O)c2ccc(Cl)c(Cl)c2)CCO3)CCC1` [Example 139, ethyl 1-(1-(3,4-dichloro-phenylsulfonyl)-2,3-dihydro-1H-pyrido[2,3-b][1,4]oxazine-7-carboxamido)cyclobutane-carboxylate], the EC50 [1] is reported as over 30 µM and the EC50 [2] is reported as at most 0.03 µM.
Compound `CC(C)(C)NC(=O)c1cnc2c(c1)N(S(=O)(=O)N1CCOCC1)CCO2` [Example 140, N-tert-butyl-1-(morpholinosulfonyl)-2,3-dihydro-1H-pyrido[2,3-b][1,4]oxazine-7-carboxamide] has an EC50 [1] of over 30 µM and an EC50 [2] of at most 0.03 µM.
Work on `CC(C)(CO)NC(=O)c1cnc2c(c1)N(S(=O)(=O)N1CCCCC1)CCO2` [Example 146, N-(1-hydroxy-2-methylpropan-2-yl)-1-(piperidin-1-ylsulfonyl)-2,3-dihydro-1H-pyrido[2,3-b][1,4]oxazine-7-carboxamide] yielded an EC50 [1] of over 30 µM and an EC50 [2] of at most 0.03 µM.
Compound `CC(C)(C)NC(=O)c1cnc2c(c1)N(S(=O)(=O)N1CCC(F)CC1)CCO2` [Example 166, N-tert-butyl-1-(4-fluoropiperidin-1-ylsulfonyl)-2,3-dihydro-1H-pyrido[2,3-b][1,4]oxazine-7-carboxamide] has an EC50 [1] of over 30 µM and an EC50 [2] of at most 0.03 µM.
`CC(C)(CO)CNC(=O)c1cnc2c(c1)N(S(=O)(=O)N1CCC(F)CC1)CCO2` [Example 169, 1-(4-fluoropiperidin-1-ylsulfonyl)-N-(3-hydroxy-2,2-dimethylpropyl)-2,3-dihydro-1H-pyrido[2,3-b][1,4]oxazine-7-carboxamide] was tested, and the EC50 [1] was over 30 µM and the EC50 [2] was at most 0.03 µM.
With `CC1CCN(S(=O)(=O)N2CCOc3ncc(C(=O)NC(C)(C)C)cc32)CC1` [Example 170, N-tert-butyl-1-(4-methylpiperidin-1-ylsulfonyl)-2,3-dihydro-1H-pyrido[2,3-b][1,4]oxazine-7-carboxamide] the EC50 [1] was over 30 µM and the EC50 [2] was at most 0.03 µM.
With `CCC(C)(C)NC(=O)c1cnc2c(c1)N(S(=O)(=O)N1CCC(C)CC1)CCO2` [Example 171, 1-(4-methylpiperidin-1-ylsulfonyl)-N-tert-pentyl-2,3-dihydro-1H-pyrido[2,3-b][1,4]oxazine-7-carboxamide] the EC50 [1] was over 30 µM and the EC50 [2] was at most 0.03 µM.
`CC1CCN(S(=O)(=O)N2CCOc3ncc(C(=O)NC(C)(C)CO)cc32)CC1` [Example 172, N-(1-hydroxy-2-methylpropan-2-yl)-1-(4-methylpiperidin-1-ylsulfonyl)-2,3-dihydro-1H-pyrido[2,3-b][1,4]oxazine-7-carboxamide] showed an EC50 [1] of over 30 µM and an EC50 [2] of at most 0.03 µM.
Work on `CC(C)(C)NC(=O)c1cnc2c(c1)N(S(=O)(=O)NCc1ccccc1)CCO2` [Example 178, 1-(N-benzylsulfamoyl)-N-tert-butyl-2,3-dihydro-1H-pyrido[2,3-b][1,4]oxazine-7-carboxamide] yielded an EC50 [1] of over 30 µM and an EC50 [2] of at most 0.03 µM.
Work on `CC(C)CNS(=O)(=O)N1CCOc2ncc(C(=O)NC(C)(C)C)cc21` [Example 180, N-tert-butyl-1-(N-isobutylsulfamoyl)-2,3-dihydro-1H-pyrido[2,3-b][1,4]oxazine-7-carboxamide] yielded an EC50 [1] of over 30 µM and an EC50 [2] of at most 0.03 µM.
In the case of `CC(C)CNS(=O)(=O)N1CCOc2ncc(C(=O)NCC(C)(C)CO)cc21` [Example 182, N-(3-hydroxy-2,2-dimethylpropyl)-1-(N-isobutylsulfamoyl)-2,3-dihydro-1H-pyrido[2,3-b][1,4]oxazine-7-carboxamide], the EC50 [1] is reported as over 30 µM and the EC50 [2] is reported as at most 0.03 µM.
Work on `C[C@@H]1CCC[C@H](C)N1C(=O)c1cnc2c(c1)N(S(=O)(=O)c1ccc(C(F)(F)F)cc1)CCO2` [Example 197, (cis-2,6-dimethylpiperidin-1-yl)(1-(4-(trifluoromethyl)phenylsulf-onyl)-2,3-dihydro-1H-pyrido[2,3-b][1,4]oxazin-7-yl)methanone] yielded an EC50 [1] of over 30 µM and an EC50 [2] of at most 0.03 µM.
`O=C(NC1(CO)CCC1)c1cnc2c(c1)N(S(=O)(=O)c1ccc(Cl)c(Cl)c1)CCO2` [Example 209, 1-(3,4-dichlorophenylsulfonyl)-N-(1-(hydroxymethyl)cyclobutyl)-2,3-dihydro-1H-pyrido[2,3-b][1,4]oxazine-7-carboxamide] was tested, and the EC50 [1] was over 30 µM and the EC50 [2] was at most 0.03 µM.
With `CCc1noc(-c2cnc3c(c2)N(S(=O)(=O)c2ccccc2)CCO3)n1` [Example 210, 7-(3-ethyl-1,2,4-oxadiazol-5-yl)-1-(phenylsulfonyl)-2,3-dihydro-1H-pyrido[2,3-b][1,4]oxazine] the EC50 [1] was over 30 µM and the EC50 [2] was at most 0.03 µM.
With `O=S(=O)(c1ccccc1)N1CCOc2ncc(-c3nnc(-c4ccccc4)o3)cc21` [Example 211, 7-(5-phenyl-1,3,4-oxadiazol-2-yl)-1-(phenylsulfonyl)-2,3-dihydro-1H-pyrido[2,3-b][1,4]oxazine] the EC50 [1] was over 30 µM and the “inverse agonist mark, rat CB2 receptor” value ([2]; asterisk at the compound number) was 181, 188, 189, 190, 195, 200, 201, 202, 204, 211*, 214*, 220, 221,.
`CC1(C)N=C(c2cnc3c(c2)N(S(=O)(=O)c2ccc(C(F)(F)F)cc2)CCO3)NO1` [Example 223, 7-(5,5-dimethyl-2,5-dihydro-1,2,4-oxadiazol-3-yl)-1-(4-(trifluoromethyl)phenylsulfonyl)-2,3-dihydro-1H-pyrido[2,3-b][1,4]oxazine] gave an EC50 [1] of over 30 µM and an EC50 [2] of at most 0.03 µM.
With `CC1(C)CN=C(c2cnc3c(c2)N(S(=O)(=O)c2ccc(C(F)(F)F)cc2)CCO3)NC1` [Example 225, 7-(5,5-dimethyl-1,4,5,6-tetrahydropyrimidin-2-yl)-1-(4-(trifluoromethyl)phenylsulfonyl)-2,3-dihydro-1H-pyrido[2,3-b][1,4]oxazine] the EC50 [1] was over 30 µM and the EC50 [2] was over 30 µM.
